Test results reported in ChEMBL document CHEMBL5303711, “ECBD screening data for assay EOS300108” (2023).
Structures can show the parent of a compound that is named as a salt. Calls of active or inactive are those of the source. How the calls were made is not given here.

How the values were obtained:
[1] = (§1) Cytotoxicity activity against human HepG2 cells assessed by CellTiter-Glo luminescent cell viability assay.; assay type: toxicity, cell-based; parameters: assay stage confirmatory assay, source tissue liver; details: HepG2 cells, read-out: IC50 relative
HepG2 = experiment: as §1; assay type: toxicity, cell-based; parameters: assay stage confirmatory assay, source tissue liver; details: hepg2, read-out: IC50 relative

SMILES	CC50 [1]	CC50 (HepG2)
Cc1ccc(-n2sc3ccccc3c2=O)cc1	8.7 µM (active)	9.1 µM (active)
O=C1C(Cl)=C(NCCN2CCOCC2)C(=O)c2ncccc21	4.5 µM (active)	4 µM (active)
O=c1c2ccccc2sn1-c1ccccc1	10.5 µM (active)	13 µM (inactive)
O=C1C(=O)c2ccccc2-c2ccccc21 [9,10-PHENANTHRENEQUINONE]	1.1 µM (active)	1.2 µM (active)
COc1cc(/C=C/C(=O)CC(=O)/C=C/c2ccc(O)c(OC)c2)ccc1O [CURCUMIN]	5.3 µM (active)	7.1 µM (active)
CN1CCN(c2ccc3nc(-c4c(N)c5c(F)cccc5[nH]c4=O)[nH]c3c2)CC1 [DOVITINIB]	2.7 µM (active)	4.4 µM (active)
O=C1c2ccccc2-n2c1nc1ccccc1c2=O [TRYPTANTHRIN]	4.3 µM (active)	
CC(C)(C)c1cc(C=C(C#N)C#N)cc(C(C)(C)C)c1O [TYRPHOSTIN A9]	0.8 µM (active)	
COc1cc2ncnc(Nc3cccc(Cl)c3)c2cc1OC [TYRPHOSTIN AG-1478]	8.3 µM (active)	
CC(C)Nc1cc(-c2c[nH]c(C(=O)N[C@H](CO)c3cccc(Cl)c3)c2)c(Cl)cn1 [ULIXERTINIB]	1 µM (active)	
COc1cc2c(Nc3ccc(Br)cc3F)ncnc2cc1OCC1CCN(C)CC1 [VANDETANIB]	2.6 µM (active)	
C[C@@H]1COC(Nc2ccc3ncnc(Nc4ccc(OCc5nccs5)c(Cl)c4)c3c2)=N1 [VARLITINIB]	50 µM (inactive)	
N#Cc1ccc2[nH]cc(CCCCN3CCN(c4ccc5oc(C(N)=O)cc5c4)CC3)c2c1 [VILAZODONE]	6.1 µM (active)	
CC[C@]1(O)C[C@@H]2CN(CCc3c([nH]c4ccccc34)[C@@](C(=O)OC)(c3cc4c(cc3OC)N(C)[C@H]3[C@@](O)(C(=O)OC)[C@H](OC(C)=O)[C@]5(CC)C=CCN6CC[C@]43[C@@H]65)C2)C1 [VINBLASTINE SULFATE]	4 µM (active)	
CNC(=O)c1cccc(-c2ccc3c(N4CCOC[C@@H]4C)nc(N4CCOC[C@@H]4C)nc3n2)c1 [VISTUSERTIB]	0.2 µM (active)	
CC[C@@H]1C(=O)N(C)c2cnc(Nc3ccc(C(=O)N[C@H]4CC[C@H](N5CCN(CC6CC6)CC5)CC4)cc3OC)nc2N1C(C)C [VOLASERTIB]	0.9 µM (active)	
Cc1ccc(Sc2ccccc2N2CCNCC2)c(C)c1 [VORTIOXETINE]	4.1 µM (active)	
CNC(=O)c1ccccc1Nc1cc(Nc2ccc(N3CCOCC3)cc2OC)ncc1C(F)(F)F [VS-4718]	3.7 µM (active)	
COC[C@H]1OC(=O)c2coc3c2[C@@]1(C)C1=C(C3=O)[C@@H]2CCC(=O)[C@@]2(C)C[C@H]1OC(C)=O [WORTMANNIN]	7.4 µM (active)	
CC(C)c1cc(CNc2nc(Nc3cc(C4CC4)[nH]n3)cc(N3CCN(C)CC3)n2)on1 [XL-228]	1.7 µM (active)	
CC[C@@H]1[C@H](F)C(=O)N[C@@H]1COc1nccc2cc(C(N)=O)c(OC)cc12 [ZIMLOVISERTIB]	6 µM (active)	
FC(F)c1nc2ccccc2n1-c1nc(N2CCOCC2)nc(N2CCOCC2)n1 [ZSTK-474]	1.2 µM (active)	
